In patent US20220323536A1, “USE OF BETA-L-ASPARTYL-L-ARGININE ON SENESCENT SKIN” (SYMRISE AG, priority 2019, published 2022):

Legend:
human skin explants [1] = assay: Protection against carbonylation of proteins (ex vivo study); format: cell-based; conditions: UV stimulated skin treated with 0.2% and 0.5%, vs untreated UV stimulated skin; FIG. 9
Method: Detection of carbonylation: After removing the fatty and connective tissue, the frozen skin samples are weighed and cut. The skin pieces of the tested samples are combined and homogenized in a cold extraction buffer. Cell lysates are collected by centrifugation.
The measurement of the carbonylated protein is performed with the “OxyBlot Protein_Oxidation Kit by Millipore”, (#S7150) according to the protocol of the producer. Only the protein bands of a size between 50 kDa and 150 kDa were taken into account for the calculation. The obtained amount of carbonylated protein is normalized with the actin band (which is constant) and given with respect to the non-treated sample.

[2] = Solubility and stability of the powder; format: physicochemical
human skin explants [3] = assay: Reduction of ROS score after UVA irradiation on human skin explants (ex vivo study); format: cell-based; conditions: topical, 18 h incubation, vs untreated UV irradiated skin, FIG. 6
Excerpt: Cultivation of skin models: The skin was cut into about 8×3 mm large pieces (diameter×layer thickness of the models) and cultivated until the planned end of the experiment. Per treatment, six models each were used. The skin models were cultivated as air-liquid-interface cultures in a perforated stainless steel ring with contact to the culture medium (modified Williams 'E Medium) until the desired endpoint.
Treatment: Test substances and controls were applied topically. To this end, the skin models were carefully cleaned with a cotton pad. Subsequently, 4 μL of each test substance or the control, respectively, were applied to the models and covered with a membrane filter (diameter=6 mm).
The skin models were incubated for 18 h with test substance and positive control, respectively. […]
UV-irradiation: The used sun simulator was a BIO-SUN-system from the company Vilber Lourmat. […] The UV-light emission is constantly monitored and the system stops automatically when the pre-set energy quantity is reached. […]
Of each skin model, two samples were used for image capture with the fluorescence analysis. Each picture was analyzed by determining the fluorescence using Image-J analysis software (NIH, USA). The measured values were normalized over the size of the selected surface.
Statistics: For each treatment of the skin models, the averages of the quantitative data was determined. […]

senescent fibroblasts [4] = assay: Reduction of mitochondrial DNA (mtDNA) in senescent fibroblasts (in vitro study); format: cell-based; conditions: 5 days treatment; FIG. 5
Method: Disruptions of the nuclear and mitochondrial DNA were studied, analyzed by detecting nucleus fragments, the mitochondrial DNA content, the mitochondrial mass and the average cell density, the latter as representation of viability.
(§1) The cells were treated with β-L-aspartyl-L-arginine for 5 days. The cell images were taken after incubation. In order to label the nuclear and mitochondrial DNA, the cells were incubated with a fluorescent dye for 30 minutes. After removal of the dye, the images were taken with an epifluorescence microscope. Image analysis was performed in a 3-fold determination. Sampling 10 pictures per experimental condition or repetition, respectively.
(§2) Data collection: The images were taken with a Zeiss axioplan microscope. Image analysis was performed with a software developed by ICDD.
(§3) Data interpretation: The following data was collected: average cell size, mtDNA content, mitochondrial density, mitochondrial biogenesis, mitochondrial mass and cell nucelus size. The average cell number per field was used as control of cell viability for each experimental condition. The effect of active substances was also given as protective effect in comparison to non-treated cells. The effect of the positive control was included for comparison.

senescent fibroblasts [5] = assay: Reduction of cell size in senescent fibroblasts (in vitro study); format: cell-based; conditions: amounts of more than 1.0 mM, vs untreated senescent fibroblasts; FIG. 3
Method: (§4) Senescent cells were incubated with β-L-aspartyl-L-arginine. Cell size and nuclear size were measured while cell density reflects the viability. […] See example 4 for the details of experimental procedure.
as §1, §2, §3

[6] = Reduction of wrinkle intensity (clinical study); format: in vivo, human
Method: (§5) The study was conducted with 26 female volunteers of age 53 +/−3 years. The application was done twice daily for two months. On one side of the face, the product is applied, on the other side the placebo.
Imaging: The evaluation is based on high-resolution digital photography under controlled conditions. Pictures were taken at the start of the study, after 28 days and after 56 days of product application.
The subjects were positioned in front of the optical arrangement and the face was photographed as portrait or close-up. The persons were photographed seated at controlled lighting. The conditions were kept constant during all photographs to ensure comparability.
Reduction of wrinkles and lines: The assessment of wrinkles and lines was done in a limited area around the eye of the subject. The intensity of the wrinkles and lines was measured as parameter R. The larger the value for R, the more pronounced are the wrinkles and lines. The relative reduction of wrinkles is calculated according to the following formula:
R%=100(Ri−RF)/Ri(R=wrinkle intensity, i=initial; f=final)
Data analysis and interpretation: For data analysis the following software packages were used: […]

senescent fibroblasts [7] = assay: Reduction of mitochondrial ROS in senescent fibroblasts (in vitro study); format: cell-based
Method: Using a fluorescent dye, the antioxidative potential of β-L-aspartyl-L-arginine with respect to mitochondrial reactive oxygen species (ROS) was quantified. Senescent cells were incubated with β-L-aspartyl-L-arginine for 24 hours. Subsequently, the treated and non-treated senescent cells as well as the treated and non-treated non-senescent cells were incubated with the fluorescent dye for 30 minutes at 37° C. After washing, a portion of the non-senescent cells was treated with the oxidative reference substance H2O2 (100 μM). The mitochondrial ROS production was measured immediately every 5 mins over a period of 60 minutes. A microtiter plate reader (Varioskan-Thermo) was used as measuring device. During the kinetic measurement, the cells were further incubated at 37° C. Using fluorimetry, the antioxidative activity was measured in parallel with the viability of the cell. The experiments comprised a blank as well as a negative and a positive control. The positive control consists of […]. […] Senescent cells treated with resveratrol were used as reference for the comparison of the activity of β-L-aspartyl-L-arginine in the decrease of endogenous production of mitochondrial ROS in senescent cells. β-L-aspartyl-L-arginine was measured in a 4-fold measurement. […]

[8] = Improvement of skin firmness and elasticity (clinical study, cutometer); format: in vivo, human
Method: as §5
The method of measurement relies on suction. A vacuum is created in the gauge head of the cutometer, which sucks the skin into the measuring device. An optical arrangement, consisting of a light source and a light detector, measures the light intensity, which enters dependent on how much skin is sucked in. The resulting parameters are elasticity and skin firmness.
Skin firmness represents the resistance, which the skin creates against the suction by the vacuum. Elasticity, is the time, which the skin needs to return to its original state.

collagen Typ III = assay: Stimulation of collagen Type III (ex vivo study); format: cell-based; conditions: vs untreated skin; FIG. 12
Method: (§6) 4 μl of β-L-aspartyl-L-arginine were applied on the skin every day during 6 days of treatment at 37° C., 5% CO2 and 100% humidity. 12 skin cuts were immunohistochemically stained with selected antibodies. The papillary dermis was selected for the analysis because it is the part of the dermis, which changes the most in reaction to a previous treatment.
(§7) The area to be analyzed was carefully selected while it was made sure that irregular structures such as blood vessels, sweat glands or hair follicles were avoided.
(§8) For the assessment of the results, both, the color intensity and the color distribution were measured using Image-J analysis software (NIH, USA)—thus a semi-quantitative assessment was possible.

fibronectin = assay: Stimulation of fibronectin proteins in the dermis (ex vivo study); format: cell-based; conditions: 4 μl topically every day during 6 days, vs untreated skin; FIG. 7
Method: as §6, §7, §8

senescent fibroblasts [9] = assay: Reduction of nucleus to cell size (N/C) ratio in senescent fibroblasts (in vitro study); format: cell-based; conditions: vs untreated senescent fibroblasts; FIG. 4
Method: as §4, §1, §2, §3

[10] = after eight weeks, twice daily use of 0.1%

For `N=C(N)NCCC[C@H](NC(=O)C[C@H](N)C(=O)O)C(=O)O` [β-L-aspartyl-L-arginine], the “formation of carbonylated proteins” value (human skin explants [1]) was “prevent the formation of carbonylated proteins”, the stability ([2]; pH from 5 to 9, up to 50° C.) was “stable at a pH from 5 to 9 at up to 50 °C” and the water solubility ([2]; white, odorless powder) was “water soluble”. The “ROS score of UV irradiated skin (dermis)” value (human skin explants [3]) was “significantly reduces the ROS score”, the “mtDNA in senescent cells” value (senescent fibroblasts [4]) was “reduced by β-L-aspartyl-L-arginine to an amount comparable to young replicative cells” and the “cell size of senescent fibroblasts” value (senescent fibroblasts [5]) was “reduce cell size”. For the same molecule, the “volunteers with significant reduction of wrinkle intensity” value [6, 10] was 85%, the “reduction of wrinkle intensity compared to a placebo” value ([6]; after eight weeks, twice daily use of 0.1%, 26 female volunteers) was 6.8% and the “wrinkles and fine lines on crow feet” value ([6]; four weeks of twice daily use of 0.1%, FIG. 8) was “visibly smoothes wrinkles and fine lines”. The “mitochondrial ROS (mtROS)” value (senescent fibroblasts [7]; 10 μM, 24 hours incubation, senescent cells vs non-treated senescent cells, FIG. 1) was “significant reduction of mitochondrial ROS”, the “dosage dependence of the mtROS reduction effect” value (senescent fibroblasts [7]; values with respect to untreated senescent cells = 100%, FIG. 2) was “Increasing amounts of β-L-aspartyl-L-arginine show a larger reduction” and the “enhancement of skin elasticity compared to the placebo” value [8, 10] was “+8.5%”. The “enhancement of skin firmness compared to the placebo” value [8, 10] was “+10.1%”, the “volunteers with significant enhancement of skin elasticity” value [8, 10] was 100% and the “volunteers with significant enhancement of skin firmness” value [8, 10] was 92%. For the same molecule, the skin firmness ([8]; four weeks of twice daily use of 0.1%, FIG. 10) was “visibly improves skin firmness”, the skin elasticity ([8]; four weeks of twice daily use of 0.1%, FIG. 11) was “visibly improves skin elasticity” and the “collagen Typ III production” value (collagen Typ III) was “stimulate the collagen Typ III production”. For the same molecule, the “fibronectin production in the dermis” value (fibronectin) was “stimulate the fibronectin production” and the “nucleus to cell size ratio in senescent fibroblasts” value (senescent fibroblasts [9]) was “reduced compared to untreated senescent fibroblasts”.
